Results: the supplement of paper PMC11208160

assay: recombinant UMI read abundance after kanamycin selection (control-corrected) (log10(CPM+1)); higher = more efficient recombination; extreme values may be limits of the assay; sequences stand for … in AGTGCAGAGAAAATCGGCCAGTTTTCTCTGCCTGCAGTCCGCATGCCGTGGGACCCCTTGGGTTCTAACCTGTTGCCTAGATTTATGCAGCGGACTGCCTTTCTCCCAAAGTGATAAACCGG…AGGTTGGTTTCACT; site = the 11-nt donor
Summary of the method: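 Under IPTG (0.07 mM) plus kanamycin, or without selection, Escherichia coli carrying a UMI-tagged donor and donor-binding-loop pair library and a target plasmid for the IS621 bridge recombinase were plated in two replicates. Recombinant UMIs were PCR-amplified across the donor–target junction and sequenced. Counts were converted to CPM, averaged over replicates, scaled by control-derived factors and reported as log10(CPM+1).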
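Also: IS621 bridge recombinase in Escherichia coli cells against a fixed T5 target plasmid.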

Sequence	recombinant UMI read abundance (log10)
GGATAGCCATGGACCGGTTTTCCCGGTAATCCGTATTTGCC (site GGATAGTCTGG)	2.42
GGATAGGCATGGACCGGTTTTCCCGGTAATCCGTATTTGCC (site GGATAGACTGG)	1.94
GGATAGGCATGGACCGGTTTTCCCGGTAATCCGTATTTGCC (site GGATAGCCTGG)	0.855
GGATAGGCATGGACCGGTTTTCCCGGTAATCCGTATTTGCC (site GGATAGGCTGG)	2.44
GGATAGGCATGGACCGGTTTTCCCGGTAATCCGTATTTGCC (site GGATAGTCTGG)	0.642
GGATAGTCATGGACCGGTTTTCCCGGTAATCCGTATTTGCC (site GGATAGACTGG)	2.31
GGATAGTCATGGACCGGTTTTCCCGGTAATCCGTATTTGCC (site GGATAGCCTGG)	0
GGATAGTCATGGACCGGTTTTCCCGGTAATCCGTATTTGCC (site GGATAGGCTGG)	0
GGATAGTCATGGACCGGTTTTCCCGGTAATCCGTATTTGCC (site GGATAGTCTGG)	2.79
GGATCATCATGGACCGGTTTTCCCGGTAATCCGTATTTGTG (site GGATCATCTCA)	0.926
GGATCGACATGGACCGGTTTTCCCGGTAATCCGTATTTGCC (site GGATAGACTGG)	1.48
GGATCGACATGGACCGGTTTTCCCGGTAATCCGTATTTGCC (site GGATCGACTGG)	1.28
GGATCGACATGGACCGGTTTTCCCGGTAATCCGTATTTGCC (site GGATGGACTGG)	0
GGATCGACATGGACCGGTTTTCCCGGTAATCCGTATTTGCC (site GGATTGACTGG)	0
GGATCGCCATGGACCGGTTTTCCCGGTAATCCGTATTTGCG (site GGATCGCCTCG)	0.0649
GGATGGACATGGACCGGTTTTCCCGGTAATCCGTATTTGCC (site GGATAGACTGG)	2.17
GGATGGACATGGACCGGTTTTCCCGGTAATCCGTATTTGCC (site GGATCGACTGG)	0
GGATGGACATGGACCGGTTTTCCCGGTAATCCGTATTTGCC (site GGATGGACTGG)	2.47
GGATGGACATGGACCGGTTTTCCCGGTAATCCGTATTTGCC (site GGATTGACTGG)	0
GGATGGCCATGGACCGGTTTTCCCGGTAATCCGTATTTGCA (site GAATGGCCTTG)	0
GGATGGCCATGGACCGGTTTTCCCGGTAATCCGTATTTGCA (site GCATGGCCTTG)	0
GGATGGCCATGGACCGGTTTTCCCGGTAATCCGTATTTGCA (site GGATGGCCTTG)	0.0128
GGATGGCCATGGACCGGTTTTCCCGGTAATCCGTATTTGCA (site GTATGGCCTTG)	0
GGATTCGCATGGACCGGTTTTCCCGGTAATCCGTATTTGCG (site GGATTCGCTCG)	0.0184
GGATTGACATGGACCGGTTTTCCCGGTAATCCGTATTTGTT (site GGATTGACTAA)	0.888

Sequence	recombinant UMI read abundance (log10)
GGCAAAACATGGACCGGTTTTCCCGGTAATCCGTATTTGTT (site GGCAAAACTAA)	0.56
GGCAAGCCATGGACCGGTTTTCCCGGTAATCCGTATTTGAA (site GGCAAACCTTT)	0
GGCAAGCCATGGACCGGTTTTCCCGGTAATCCGTATTTGAA (site GGCAACCCTTT)	0
GGCAAGCCATGGACCGGTTTTCCCGGTAATCCGTATTTGAA (site GGCAAGCCTTT)	0.247
GGCAAGCCATGGACCGGTTTTCCCGGTAATCCGTATTTGAA (site GGCAATCCTTT)	0
GGCAATGCATGGACCGGTTTTCCCGGTAATCCGTATTTGAA (site GGCAATACTTT)	0
GGCAATGCATGGACCGGTTTTCCCGGTAATCCGTATTTGAA (site GGCAATCCTTT)	0
GGCAATGCATGGACCGGTTTTCCCGGTAATCCGTATTTGAA (site GGCAATGCTTT)	1.26
GGCAATGCATGGACCGGTTTTCCCGGTAATCCGTATTTGAA (site GGCAATTCTTT)	0.536
GGCATATCATGGACCGGTTTTCCCGGTAATCCGTATTTGCA (site GGCATATCTTG)	1.57
GGCCACCCATGGACCGGTTTTCCCGGTAATCCGTATTTGTC (site GGCCACCCTAA)	0.133
GGCCACCCATGGACCGGTTTTCCCGGTAATCCGTATTTGTC (site GGCCACCCTCA)	0.0127
GGCCACCCATGGACCGGTTTTCCCGGTAATCCGTATTTGTC (site GGCCACCCTGA)	0
GGCCACCCATGGACCGGTTTTCCCGGTAATCCGTATTTGTC (site GGCCACCCTTA)	0.0183
GGCCACCCATGGACCGGTTTTCCCGGTAATCCGTATTTGTT (site AGCCACCCTAA)	0.0306
GGCCACCCATGGACCGGTTTTCCCGGTAATCCGTATTTGTT (site CGCCACCCTAA)	0.181
GGCCACCCATGGACCGGTTTTCCCGGTAATCCGTATTTGTT (site GACCACCCTAA)	0.018
GGCCACCCATGGACCGGTTTTCCCGGTAATCCGTATTTGTT (site GCCCACCCTAA)	0.0196
GGCCACCCATGGACCGGTTTTCCCGGTAATCCGTATTTGTT (site GGACACCCTAA)	0.0221
GGCCACCCATGGACCGGTTTTCCCGGTAATCCGTATTTGTT (site GGCAACCCTAA)	0.00185
GGCCACCCATGGACCGGTTTTCCCGGTAATCCGTATTTGTT (site GGCCAACCTAA)	0.0287
GGCCACCCATGGACCGGTTTTCCCGGTAATCCGTATTTGTT (site GGCCACACTAA)	0.0112
GGCCACCCATGGACCGGTTTTCCCGGTAATCCGTATTTGTT (site GGCCACCCTAA)	0.0168
GGCCACCCATGGACCGGTTTTCCCGGTAATCCGTATTTGTT (site GGCCACCCTAC)	0.0176
GGCCACCCATGGACCGGTTTTCCCGGTAATCCGTATTTGTT (site GGCCACCCTAG)	0

Sequence	recombinant UMI read abundance (log10)
GGCCACCCATGGACCGGTTTTCCCGGTAATCCGTATTTGTT (site GGCCACCCTAT)	0.0103
GGCCACCCATGGACCGGTTTTCCCGGTAATCCGTATTTGTT (site GGCCACCCTCA)	0
GGCCACCCATGGACCGGTTTTCCCGGTAATCCGTATTTGTT (site GGCCACCCTGA)	0
GGCCACCCATGGACCGGTTTTCCCGGTAATCCGTATTTGTT (site GGCCACCCTTA)	0.00548
GGCCACCCATGGACCGGTTTTCCCGGTAATCCGTATTTGTT (site GGCCACGCTAA)	0.0127
GGCCACCCATGGACCGGTTTTCCCGGTAATCCGTATTTGTT (site GGCCACTCTAA)	0.00279
GGCCACCCATGGACCGGTTTTCCCGGTAATCCGTATTTGTT (site GGCCAGCCTAA)	0
GGCCACCCATGGACCGGTTTTCCCGGTAATCCGTATTTGTT (site GGCCATCCTAA)	0.0127
GGCCACCCATGGACCGGTTTTCCCGGTAATCCGTATTTGTT (site GGCCCCCCTAA)	0.0711
GGCCACCCATGGACCGGTTTTCCCGGTAATCCGTATTTGTT (site GGCCGCCCTAA)	0.0085
GGCCACCCATGGACCGGTTTTCCCGGTAATCCGTATTTGTT (site GGCCTCCCTAA)	0.0064
GGCCACCCATGGACCGGTTTTCCCGGTAATCCGTATTTGTT (site GGCGACCCTAA)	0.0156
GGCCACCCATGGACCGGTTTTCCCGGTAATCCGTATTTGTT (site GGCTACCCTAA)	0.031
GGCCACCCATGGACCGGTTTTCCCGGTAATCCGTATTTGTT (site GGGCACCCTAA)	0.0781
GGCCACCCATGGACCGGTTTTCCCGGTAATCCGTATTTGTT (site GGTCACCCTAA)	0.0101
GGCCACCCATGGACCGGTTTTCCCGGTAATCCGTATTTGTT (site GTCCACCCTAA)	0.0225
GGCCACCCATGGACCGGTTTTCCCGGTAATCCGTATTTGTT (site TGCCACCCTAA)	0.0158
GGCCACTCATGGACCGGTTTTCCCGGTAATCCGTATTTGTT (site GGCCACACTAA)	0.0252
GGCCACTCATGGACCGGTTTTCCCGGTAATCCGTATTTGTT (site GGCCACCCTAA)	0.00888
GGCCACTCATGGACCGGTTTTCCCGGTAATCCGTATTTGTT (site GGCCACGCTAA)	0.00402
GGCCACTCATGGACCGGTTTTCCCGGTAATCCGTATTTGTT (site GGCCACTCTAA)	1.33
GGCCAGACATGGACCGGTTTTCCCGGTAATCCGTATTTGAC (site GGCCAGACTGT)	0.867
GGCCAGGCATGGACCGGTTTTCCCGGTAATCCGTATTTGTT (site GGCCAGGCTAA)	0.00326
GGCCCAACATGGACCGGTTTTCCCGGTAATCCGTATTTGTA (site GGACCAACTTA)	0.0271
GGCCCAACATGGACCGGTTTTCCCGGTAATCCGTATTTGTA (site GGCCCAACTTA)	0.848
